Laboratory results reported in PMC7249156, “Tricyclic Derivative of Acyclovir and Its Esters in Relation to the Esters of Acyclovir Enzymatic Stability: Enzymatic Stability Study” (Molecules, 2020).
Read-outs that look alike come from different tables or passages of the source.

How the values were obtained:
[1] = parameters: method as in PMID 18638532; conditions: valaciclovir; cited from earlier work
[2] = test system: esterase from porcine liver (PLE); experiment: Stability test in plasma (80%, 37 °C) with porcine liver esterase; type: in vitro ADME; conditions: for kobs. ± Δkobs. / t0.5: plasma 80%
Source text: For the correct interpretation of the distribution of the tested compounds under the influence of esterase, it is necessary to know the specificity of the enzymatic reactions (Scheme 1). The biotransformation occurring during enzymatic hydrolysis can be treated as a limited capacity process and described using the Michaelis–Menten equation:(2) V=−dc/dt=Vm·c/KM+c, where: c—substance concentration, V = −(dc/dt)—rate of change of substance concentration, Vm—maximum theoretical speed of the process, and KM—Michaelis constant (numerically equal to the concentration of the substance at which its elimination occurs at a rate equal to half of Vm).
In case the value of the Michaelis constant is much higher than the concentration of the substance (KM >> c), Equation (2) can be simplified to the form of:(3) V=−dc/dt=k2/KM·cE·c=Vm/KM·c=kobs.·c, where: cE—enzyme concentration.
After transformation:(4) kobs.=k2/KM·cE=Vm/KM.
A 1 U/μL aqueous pork esterase solution was prepared by diluting the suspension with 200 μL of water. Here, 168,000 Da was used as the molecular weight of the esterase and the molar concentration of the enzyme in a determined volume of the test sample of 5.0 mL was calculated (1 μL of the enzyme solution in 5.0 mL corresponded to a concentration of 5.50 × 10^−9 M).
For plastic screw-on tubes containing 4.0 mL of plasma, 0.8 mL of PBS buffer was added, mixed, and thermostated in a water bath (37 °C). A fixed volume of enzyme (0.5–11.0 μL) was added to the incubated plasma, mixed, and thermostated for 15 min. Then, 0.2 mL of the tested compound solution in DMSO (5.00 mg/mL) were added, mixed thoroughly, and proceeded as described in Section 3.4.1.
(§1) The HPLC-MS/MS method was used for analysis of the solutions hydrolyzed in plasma (80% v/v, 37 °C, 24 h) and in plasma (80%, v/v) with porcine esterase at a concentration of 5.50 × 10^−9 M (37 °C, 2 h). The samples were prepared according to the procedure described in Section 3.4.1 and Section 3.4.2, and then diluted with water in a proportion of 1:100 (v/v).

[3] = Stability of the analyte (supernatant) on storage; type: physicochemical; conditions: supernatant stored in freezer (−20 °C)
Method: For each substance, samples with two concentrations in the linearity range of the method were prepared. The supernatants of both solutions were analyzed by HPLC immediately after preparation and after storage at room temperature (25 °C), in a refrigerator (4 °C) and freezer compartment (−20 °C). The degree of decomposition of the tested compounds with respect to the initial value was determined.

[4] = Stability test (hydrolysis) in human plasma (80%, 37 °C); type: in vitro ADME
Method: The condition for determining the values of the observed rate constants is to observe changes in the concentration of the tested compound over time ensuring degradation of at least 80% of the compound. In plasma, hydrolysis reactions were carried out until a minimum 50% loss of the tested compound was obtained except for the extremely stable 6-(4-MeOPh)-TACV under these conditions. In this case, the observed loss was 22% during the 25-h reaction. Further carrying out of this reaction in vitro in a temperature of 37 °C was not recommended (Figure 2).
Stability tests were performed in human plasma (80%, v/v) thermostated in a water bath at 37 °C. In total, 2.50 mg of each of the analyzed compounds were weighed and dissolved in 0.5 mL of DMSO (5.0 mg/mL). For plastic screw-on tubes containing 4.0 mL of plasma, 0.8 mL of PBS buffer were added, mixed, and thermostated in a water bath. Then, 0.2 mL of the tested compound solution in DMSO (5.0 mg/mL) were added to the incubated plasma. Samples were thermostated at 37 °C and at specified intervals. After mixing, 0.2 mL of the test sample were taken and transferred to 0.4 mL of the appropriate internal standard solution (Table 1). After mixing, the samples were centrifuged for […] (5 min, 13,000 rpm). The supernatant was transferred to the tubes and analyzed by the HPLC method in a suitable phase system (Table 1). The initial concentration of the tested compounds in the plasma was 200 μg/mL, while in the analyte solution (supernatant) it was 66.7 μg/mL.
as §1

CC(C)[C@H](N)C(=O)OCCOCn1cnc2c(=O)[nH]c(N)nc21 [valaciclovir]
t0.5 [1]: 226 h

COc1ccc(-c2cn3c(=O)c4ncn(COCCO)c4nc3[nH]2)cc1 [6-(4-MeOPh)-TACV, 3,9-Dihydro-3-[(2-hydroxyethoxy)methyl]-6-(4-methoxyphenyl)-9-oxo-5H-imidazo[1,2-a]–purine]
kobs. ± Δkobs. ([2]; cE 2.0 U, 1.10·10^−8 M): (7.39 ± 0.49)·10^−6 s^−1
t0.5 ([2]; cE 2.0 U, 1.10·10^−8 M): 1560 min
kobs. ± Δkobs. ([2]; cE 3.0 U, 1.65·10^−8 M): (8.21 ± 0.58)·10^−6 s^−1
t0.5 ([2]; cE 3.0 U, 1.65·10^−8 M): 1410 min
kobs. ± Δkobs. ([2]; cE 4.0 U, 2.20·10^−8 M): (8.37 ± 0.24)·10^−6 s^−1
t0.5 ([2]; cE 4.0 U, 2.20·10^−8 M): 1360 min
kobs. ± Δkobs. ([2]; cE 6.0 U, 3.30·10^−8 M): (9.58 ± 0.39)·10^−6 s^−1
t0.5 ([2]; cE 6.0 U, 3.30·10^−8 M): 1210 min
degree of hydrolysis seen by HPLC-MS/MS ([2]; plasma 80% with porcine esterase 5.50·10^−9 M, 2 h): occurred to a small extent
time for which analyte solution was considered stable [3]: 27 days
kobs. ± Δkobs. (pseudo-first-order rate constant of hydrolysis) ([4]; human plasma 80%): (2.81 ± 0.36)·10^−6 s^−1
t0.5 ([4]; human plasma 80%): 68.40 h
observed loss of compound ([4]; human plasma 80%, 25-h reaction): 22%
degree of hydrolysis seen by HPLC-MS/MS ([4]; plasma 80%, 24 h): occurred to a small extent

CC(=O)OCCOCn1cnc2c(=O)[nH]c(N)nc21 [Ac-ACV]
t0.5 ([2]; cE 2.0 U, 1.10·10^−8 M): 264 min
kobs. ± Δkobs. ([2]; cE 4.0 U, 2.20·10^−8 M): (7.94 ± 0.23)·10^−5 s^−1
t0.5 ([2]; cE 4.0 U, 2.20·10^−8 M): 144 min
kobs. ± Δkobs. ([2]; cE 6.0 U, 3.30·10^−8 M): (1.15 ± 0.02)·10^−4 s^−1
t0.5 ([2]; cE 6.0 U, 3.30·10^−8 M): 102 min
kobs. ± Δkobs. ([2]; cE 8.0 U, 4.40·10^−8 M): (1.55 ± 0.04)·10^−4 s^−1
t0.5 ([2]; cE 8.0 U, 4.40·10^−8 M): 72 min
kobs. ± Δkobs. (pseudo-first-order rate constant of hydrolysis) ([4]; human plasma 80%): (6.47 ± 0.49)·10^−5 s^−1
t0.5 ([4]; human plasma 80%): 2.98 h

CC(C)(C)C(=O)OCCOCn1cnc2c(=O)[nH]c(N)nc21 [Piv-ACV]
kobs. ± Δkobs. ([2]; cE 1.0 U, 5.50·10^−9 M): (2.97 ± 0.09)·10^−4 s^−1
t0.5 ([2]; cE 1.0 U, 5.50·10^−9 M): 38.9 min
kobs. ± Δkobs. ([2]; cE 2.0 U, 1.10·10^−8 M): (4.71 ± 0.10)·10^−4 s^−1
t0.5 ([2]; cE 2.0 U, 1.10·10^−8 M): 24.5 min
kobs. ± Δkobs. ([2]; cE 3.0 U, 1.65·10^−8 M): (8.11 ± 0.15)·10^−4 s^−1
t0.5 ([2]; cE 3.0 U, 1.65·10^−8 M): 14.3 min
kobs. ± Δkobs. ([2]; cE 5.0 U, 2.75·10^−8 M): (1.40 ± 0.04)·10^−3 s^−1
t0.5 ([2]; cE 5.0 U, 2.75·10^−8 M): 8.3 min
time for which analyte solution was considered stable [3]: 27 days
kobs. ± Δkobs. (pseudo-first-order rate constant of hydrolysis) ([4]; human plasma 80%): (2.38 ± 0.17)·10^−5 s^−1
t0.5 ([4]; human plasma 80%): 8.09 h

Nc1nc2c(ncn2COCCOC(=O)c2cccnc2)c(=O)[nH]1 [Nic-ACV]
kobs. ± Δkobs. ([2]; cE 3.0 U, 1.65·10^−8 M): (5.35 ± 0.23)·10^−4 s^−1
t0.5 ([2]; cE 3.0 U, 1.65·10^−8 M): 21.6 min
kobs. ± Δkobs. ([2]; cE 4.0 U, 2.20·10^−8 M): (5.59 ± 0.50)·10^−4 s^−1
t0.5 ([2]; cE 4.0 U, 2.20·10^−8 M): 20.7 min
kobs. ± Δkobs. ([2]; cE 5.0 U, 2.75·10^−8 M): (5.77 ± 0.32)·10^−4 s^−1
t0.5 ([2]; cE 5.0 U, 2.75·10^−8 M): 20.0 min
kobs. ± Δkobs. ([2]; cE 6.0 U, 3.30·10^−8 M): (6.03 ± 0.22)·10^−4 s^−1
t0.5 ([2]; cE 6.0 U, 3.30·10^−8 M): 19.2 min
kobs. ± Δkobs. (pseudo-first-order rate constant of hydrolysis) ([4]; human plasma 80%): (4.31 ± 0.23)·10^−4 s^−1
t0.5 ([4]; human plasma 80%): 0.45 h

CC(C)C(=O)OCCOCn1cnc2c(=O)[nH]c(N)nc21 [iBut-ACV]
kobs. ± Δkobs. ([2]; cE 0.5 U, 2.75·10^−9 M): (1.24 ± 0.12)·10^−3 s^−1
t0.5 ([2]; cE 0.5 U, 2.75·10^−9 M): 9.3 min
kobs. ± Δkobs. ([2]; cE 1.0 U, 5.50·10^−9 M): (2.24 ± 0.09)·10^−3 s^−1
t0.5 ([2]; cE 1.0 U, 5.50·10^−9 M): 5.2 min
kobs. ± Δkobs. ([2]; cE 2.0 U, 1.10·10^−8 M): (3.98 ± 0.13)·10^−3 s^−1
t0.5 ([2]; cE 2.0 U, 1.10·10^−8 M): 2.9 min
kobs. ± Δkobs. ([2]; cE 3.0 U, 1.65·10^−8 M): (5.49 ± 0.20)·10^−3 s^−1
t0.5 ([2]; cE 3.0 U, 1.65·10^−8 M): 2.1 min
kobs. ± Δkobs. (pseudo-first-order rate constant of hydrolysis) ([4]; human plasma 80%): (4.16 ± 0.16)·10^−4 s^−1
t0.5 ([4]; human plasma 80%): 0.46 h

CCOC(=O)OCCOCn1cnc2c(=O)[nH]c(N)nc21 [Etc-ACV]
kobs. ± Δkobs. ([2]; cE 2.0 U, 1.10·10^−8 M): (6.48 ± 0.35)·10^−4 s^−1
t0.5 ([2]; cE 2.0 U, 1.10·10^−8 M): 17.8 min
kobs. ± Δkobs. ([2]; cE 3.0 U, 1.65·10^−8 M): (8.60 ± 0.34)·10^−4 s^−1
t0.5 ([2]; cE 3.0 U, 1.65·10^−8 M): 13.4 min
kobs. ± Δkobs. ([2]; cE 4.0 U, 2.20·10^−8 M): (1.20 ± 0.03)·10^−3 s^−1
t0.5 ([2]; cE 4.0 U, 2.20·10^−8 M): 9.6 min
kobs. ± Δkobs. ([2]; cE 5.0 U, 2.75·10^−8 M): (1.54 ± 0.07)·10^−3 s^−1
t0.5 ([2]; cE 5.0 U, 2.75·10^−8 M): 7.5 min
time for which analyte solution was considered stable [3]: 27 days
kobs. ± Δkobs. (pseudo-first-order rate constant of hydrolysis) ([4]; human plasma 80%): (7.99 ± 0.37)·10^−5 s^−1
t0.5 ([4]; human plasma 80%): 2.41 h
